We go through four compounds from patent publication US20240300937A1, “Substituted 6-(Pyrimidin-4-yl)Quinoline Compounds as Cyclin Dependent Kinase Inhibitors” (BeiGene, Ltd., priority 2022, published 2024).

The target of one test is CDK4/Cyclin D1 (Homo sapiens (Human), UniProt P11802). Briefly: CDK4/Cyclin D1 kinase TR-FRET inhibition assay. It is filed as biochemical. Particulars: 1 mM ATP, Rb (Ser780)-biotin substrate, read-out: CDK4D1 IC50. The method in brief:
(§1)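 Kinase preincubated 60 min at room temperature with 0–10 μM compound; reaction started with 1 mM ATP and 0.15 μM Rb (Ser780)-biotin, run 120 min at room temperature in HEPES pH 7.0, 50 mM MgCl2. pRb detected by TR-FRET (665/620 nm ratio); IC50 from four-parameter logistic fit.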
(In TR-FRET formats the signal depends on donor and acceptor labels being close together.)

A further test has as its target CDK6/Cyclin D3 (Homo sapiens (Human), UniProt Q00534). Kind of test: CDK6/Cyclin D3 kinase TR-FRET inhibition assay. It is filed as biochemical. Particulars: 1 mM ATP, Rb (Ser780)-biotin substrate, read-out: CDK6D3 IC50. The method in brief: as §1

CDK4/Cyclin D1, sequence (P11802 whole entry): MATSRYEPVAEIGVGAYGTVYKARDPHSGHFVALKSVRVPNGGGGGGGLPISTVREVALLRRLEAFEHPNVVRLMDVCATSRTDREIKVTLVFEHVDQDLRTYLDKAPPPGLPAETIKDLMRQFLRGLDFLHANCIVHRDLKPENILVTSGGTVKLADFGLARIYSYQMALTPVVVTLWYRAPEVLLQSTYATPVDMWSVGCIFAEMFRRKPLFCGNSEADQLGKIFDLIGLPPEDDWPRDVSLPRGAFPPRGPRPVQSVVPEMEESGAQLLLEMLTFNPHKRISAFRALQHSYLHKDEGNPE
CDK4/Cyclin D1, sequence (P24385 whole entry partner): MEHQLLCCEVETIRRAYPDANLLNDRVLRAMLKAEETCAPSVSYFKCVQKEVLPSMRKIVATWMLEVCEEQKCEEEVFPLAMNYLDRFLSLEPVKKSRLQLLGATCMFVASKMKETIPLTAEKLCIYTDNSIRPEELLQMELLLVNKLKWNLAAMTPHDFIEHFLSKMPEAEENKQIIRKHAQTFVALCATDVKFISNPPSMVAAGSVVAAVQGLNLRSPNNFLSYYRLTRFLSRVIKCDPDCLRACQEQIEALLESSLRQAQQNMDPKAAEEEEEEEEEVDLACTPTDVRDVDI
CDK6/Cyclin D3, sequence (Q00534 whole entry): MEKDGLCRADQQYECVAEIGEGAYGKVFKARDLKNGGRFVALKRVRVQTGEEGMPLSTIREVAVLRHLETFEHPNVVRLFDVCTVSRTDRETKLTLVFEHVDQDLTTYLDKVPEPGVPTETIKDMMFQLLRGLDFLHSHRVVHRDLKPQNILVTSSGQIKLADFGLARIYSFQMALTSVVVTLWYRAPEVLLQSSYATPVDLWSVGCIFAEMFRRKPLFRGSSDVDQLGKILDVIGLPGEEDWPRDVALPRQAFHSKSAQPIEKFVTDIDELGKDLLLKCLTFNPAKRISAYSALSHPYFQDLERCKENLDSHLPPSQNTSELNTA
CDK6/Cyclin D3, sequence (P30281 whole entry partner): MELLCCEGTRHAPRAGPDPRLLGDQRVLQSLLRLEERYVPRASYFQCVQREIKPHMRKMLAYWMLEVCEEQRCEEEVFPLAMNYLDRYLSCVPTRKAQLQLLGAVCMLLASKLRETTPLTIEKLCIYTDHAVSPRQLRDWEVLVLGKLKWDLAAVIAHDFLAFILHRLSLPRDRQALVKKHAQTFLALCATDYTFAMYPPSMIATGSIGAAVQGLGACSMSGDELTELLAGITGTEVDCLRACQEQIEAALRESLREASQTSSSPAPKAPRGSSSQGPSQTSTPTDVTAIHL

As to `CC(C)c1c([C@@H](C)O)cnc2ccc(-c3nc(N[C@@H]4CCOC[C@H]4O)ncc3F)cc12` [Example 42, (3S,4R)-4-((5-fluoro-4-(3-((R)-1-hydroxyethyl)-4-isopropylquinolin-6-yl)pyrimidin-2-yl)amino)tetrahydro-2H-pyran-3-ol], the IC50 – broadly, the concentration needed to halve the response being measured – at CDK4/Cyclin D1 was 0.032 µM; on CDK6/Cyclin D3, 0.48 µM.

In the case of `CC(C)c1c([C@@H](C)N2CC[C@@H](F)C2)cnc2ccc(-c3nc(N[C@@H]4CCOC[C@H]4O)ncc3F)cc12` [Example 48, (3S,4R)-4-((5-fluoro-4-(3-((R)-1-((R)-3-fluoropyrrolidin-1-yl)ethyl)-4-isopropylquinolin-6-yl)pyrimidin-2-yl)amino)tetrahydro-2H-pyran-3-ol], the IC50 on CDK4/Cyclin D1 was determined as 0.021 µM; at CDK6/Cyclin D3, 0.756 µM.

As to `CC(C)c1c(CN[C@@H]2CCCOC2)cnc2ccc(-c3nc(N[C@@H]4CCOC[C@H]4O)ncc3F)cc12` [Example 30, (3S,4R)-4-((5-fluoro-4-(4-isopropyl-3-((((R)-tetrahydro-2H-pyran-3-yl)amino)methyl)quinolin-6-yl)pyrimidin-2-yl)amino)tetrahydro-2H-pyran-3-ol], the values for the concentration for half-maximal inhibition (IC50) at CDK4/Cyclin D1 and on CDK6/Cyclin D3 were 0.011 µM and 0.55 µM, respectively.

On to `CC(C)c1c(CNC[C@@H]2CCCO2)cnc2ccc(-c3nc(N[C@@H]4CCOC[C@H]4O)ncc3F)cc12` [Example 34, (3S,4R)-4-((5-fluoro-4-(4-isopropyl-3-(((((S)-tetrahydrofuran-2-yl)methyl)amino)methyl)quinolin-6-yl)pyrimidin-2-yl)amino)tetrahydro-2H-pyran-3-ol], for which the IC50 came out at 0.027 µM on CDK4/Cyclin D1 and 0.783 µM on CDK6/Cyclin D3.
